This passage reports IC50 results from ChEMBL document CHEMBL5042477, “Potent Cyclic Peptide Inhibitors of FXIIa Discovered by mRNA Display with Genetic Code Reprogramming” (J Med Chem, 2021).

The assay has as its target T1, Coagulation factor XII (Homo sapiens, UniProt P00748).
T1 sequence (P00748 whole entry): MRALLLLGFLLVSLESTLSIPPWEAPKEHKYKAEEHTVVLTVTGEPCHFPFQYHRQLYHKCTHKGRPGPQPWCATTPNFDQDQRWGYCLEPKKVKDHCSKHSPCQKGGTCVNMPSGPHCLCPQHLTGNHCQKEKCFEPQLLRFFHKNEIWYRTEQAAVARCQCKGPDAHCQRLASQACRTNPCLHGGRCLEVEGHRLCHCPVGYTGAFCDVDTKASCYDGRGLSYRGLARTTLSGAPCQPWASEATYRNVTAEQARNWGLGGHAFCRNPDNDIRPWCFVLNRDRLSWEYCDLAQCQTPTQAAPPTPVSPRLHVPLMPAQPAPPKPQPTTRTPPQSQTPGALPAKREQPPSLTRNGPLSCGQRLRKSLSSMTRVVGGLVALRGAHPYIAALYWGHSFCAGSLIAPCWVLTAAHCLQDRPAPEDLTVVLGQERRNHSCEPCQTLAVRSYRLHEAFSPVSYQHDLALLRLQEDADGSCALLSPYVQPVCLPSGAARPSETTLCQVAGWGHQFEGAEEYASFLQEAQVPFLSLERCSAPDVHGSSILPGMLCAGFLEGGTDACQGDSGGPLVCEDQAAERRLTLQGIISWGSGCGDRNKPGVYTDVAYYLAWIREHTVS
The assay is described as follows: Inhibition of human factor 12a using H-D-Pro-Phe-Arg-p-nitroanilide as chromogenic substrate assessed as liberation of p-nitroaniline measured every 5 mins for 60 min by multimode plate reader analysis.

Where a SMILES comes first, the peptide text is derived from it. Bridges are numbered along the chain shown (N, C = ends). [ ]: non-standard residue; d: D form. Phe(3-CF3) = N[C@@H](Cc1cccc(C(F)(F)F)c1)C(=O)O; Phe(2-CF3) = N[C@@H](Cc1ccccc1C(F)(F)F)C(=O)O; Phe(3-CN) = N#Cc1cccc(C[C@H](N)C(=O)O)c1; Phe(3-F) = N[C@@H](Cc1cccc(F)c1)C(=O)O; Phe(4-Me) = Cc1ccc(C[C@H](N)C(=O)O)cc1; hArg = N=C(N)NCCCC[C@H](N)C(=O)O; hPhe = N[C@@H](CCc1ccccc1)C(=O)O; 3Pal = N[C@@H](Cc1cccnc1)C(=O)O

As to `CC(C)C[C@@H]1NC(=O)[C@H](Cc2cccnc2)NC(=O)CSC[C@@H](C(N)=O)NC(=O)CNC(=O)CNC(=O)[C@H](CCCNC(=N)N)NC(=O)[C@H](CC(=O)O)NC(=O)[C@H](CCCCN)NC(=O)[C@@H]2CCCN2C(=O)[C@H](CCCNC(=N)N)NC(=O)[C@H](Cc2ccccc2)NC(=O)[C@H](CCCNC(=N)N)NC1=O` ({CH2CO}-[3Pal]LRFRPKDRGGC-NH2; thioether N-12), the IC50 came out at 15 µM.
As for `CC(C)C[C@@H]1NC(=O)[C@H](C)NC(=O)CSC[C@@H](C(N)=O)NC(=O)CNC(=O)CNC(=O)[C@H](CCC(N)=O)NC(=O)[C@H](CC(N)=O)NC(=O)[C@H]([C@@H](C)O)NC(=O)[C@@H]2CCCN2C(=O)[C@H](CCCCN)NC(=O)[C@H](CC(C)C)NC(=O)[C@H](CCCNC(=N)N)NC1=O` ({CH2CO}-ALRLKPTNQGGC-NH2; thioether N-12), the figure is 290 µM.
Then `CC(C)C[C@@H]1NC(=O)[C@H](Cc2ccc(O)cc2)NC(=O)CSC[C@@H](C(N)=O)NC(=O)CNC(=O)[C@H](C)NC(=O)[C@H](CCCNC(=N)N)NC(=O)[C@H](CC(=O)O)NC(=O)[C@H](CCCCN)NC(=O)[C@@H]2CCCN2C(=O)[C@H](CCCNC(=N)N)NC(=O)[C@H](Cc2ccccc2)NC(=O)[C@H](CCCNC(=N)N)NC1=O` ({CH2CO}-YLRFRPKDRAGC-NH2; thioether N-12), with 27 µM.
Then `CC(C)C[C@@H]1NC(=O)[C@H](Cc2ccccc2C(F)(F)F)NC(=O)CSC[C@@H](C(N)=O)NC(=O)CNC(=O)CNC(=O)[C@H](CCCNC(=N)N)NC(=O)[C@H](CC(=O)O)NC(=O)[C@H](CCCCN)NC(=O)[C@@H]2CCCN2C(=O)[C@H](CCCNC(=N)N)NC(=O)[C@H](Cc2ccccc2)NC(=O)[C@H](CCCNC(=N)N)NC1=O` ({CH2CO}-[Phe(2-CF3)]LRFRPKDRGGC-NH2; thioether N-12), with 120 µM; and `CC(C)C[C@@H]1NC(=O)[C@H](Cc2ccc(O)cc2)NC(=O)CSC[C@@H](C(N)=O)NC(=O)CNC(=O)CNC(=O)[C@H](CCCNC(=N)N)NC(=O)[C@H](CC(=O)O)NC(=O)[C@H](CCCCN)NC(=O)[C@@H]2CCCN2C(=O)[C@H](CCCNC(=N)N)NC(=O)[C@H](Cc2ccccc2)NC(=O)[C@H](C)NC1=O` ({CH2CO}-YLAFRPKDRGGC-NH2; thioether N-12), with 110 µM; and `CC(C)C[C@@H]1NC(=O)[C@H](Cc2ccc(O)cc2)NC(=O)CSC[C@@H](C(N)=O)NC(=O)CNC(=O)CNC(=O)[C@H](CCCNC(=N)N)NC(=O)[C@H](CC(=O)O)NC(=O)[C@H](CCCCN)NC(=O)[C@@H]2CCCN2C(=O)[C@H](CCCNC(=N)N)NC(=O)[C@H](Cc2cccc(F)c2)NC(=O)[C@H](CCCNC(=N)N)NC1=O` ({CH2CO}-YLR[Phe(3-F)]RPKDRGGC-NH2; thioether N-12), with 0.066 µM.
Take `CC(C)C[C@@H]1NC(=O)[C@H](Cc2ccc(O)cc2)NC(=O)CSC[C@@H](C(N)=O)NC(=O)CNC(=O)CNC(=O)[C@H](CCCNC(=N)N)NC(=O)[C@H](CC(=O)O)NC(=O)[C@H](CCCCN)NC(=O)[C@@H]2CCCN2C(=O)[C@H](CCCNC(=N)N)NC(=O)[C@H](C)NC(=O)[C@H](CCCNC(=N)N)NC1=O` ({CH2CO}-YLRARPKDRGGC-NH2; thioether N-12): the IC50 is 5.1 µM.
Take `CC(C)C[C@@H]1NC(=O)[C@H](Cc2cccc(C(F)(F)F)c2)NC(=O)CSC[C@@H](C(N)=O)NC(=O)CNC(=O)CNC(=O)[C@H](CCCNC(=N)N)NC(=O)[C@H](CC(=O)O)NC(=O)[C@H](CCCCN)NC(=O)[C@@H]2CCCN2C(=O)[C@H](CCCNC(=N)N)NC(=O)[C@H](Cc2ccccc2)NC(=O)[C@H](CCCNC(=N)N)NC1=O` ({CH2CO}-[Phe(3-CF3)]LRFRPKDRGGC-NH2; thioether N-12): the IC50 came to 84 µM.
Then `CC(C)C[C@@H]1NC(=O)[C@H](Cc2cccc(C#N)c2)NC(=O)CSC[C@@H](C(N)=O)NC(=O)CNC(=O)CNC(=O)[C@H](CCCNC(=N)N)NC(=O)[C@H](CC(=O)O)NC(=O)[C@H](CCCCN)NC(=O)[C@@H]2CCCN2C(=O)[C@H](CCCNC(=N)N)NC(=O)[C@H](Cc2ccccc2)NC(=O)[C@H](CCCNC(=N)N)NC1=O` ({CH2CO}-[Phe(3-CN)]LRFRPKDRGGC-NH2; thioether N-12), with 3.1 µM; and `CC(C)C[C@@H]1NC(=O)[C@H](Cc2ccc(O)cc2)NC(=O)CSC[C@@H](C(N)=O)NC(=O)CNC(=O)CNC(=O)[C@H](CCCNC(=N)N)NC(=O)[C@H](CC(=O)O)NC(=O)[C@H](CCCCN)NC(=O)[C@@H]2CCCN2C(=O)[C@H](CCCNC(=N)N)NC(=O)[C@H](Cc2ccc(O)cc2)NC(=O)[C@H](CCCNC(=N)N)NC1=O` ({CH2CO}-YLRYRPKDRGGC-NH2; thioether N-12), with 0.26 µM; and `CC(C)C[C@@H]1NC(=O)[C@H](C)NC(=O)CSC[C@@H](C(N)=O)NC(=O)CNC(=O)CNC(=O)[C@H](CCCNC(=N)N)NC(=O)[C@H](CC(=O)O)NC(=O)[C@H](CCCCN)NC(=O)[C@@H]2CCCN2C(=O)[C@H](CCCNC(=N)N)NC(=O)[C@H](Cc2ccccc2)NC(=O)[C@H](CCCNC(=N)N)NC1=O` ({CH2CO}-ALRFRPKDRGGC-NH2; thioether N-12), with 500 µM.
For the compound `CC(C)C[C@@H]1NC(=O)[C@H](Cc2ccc(O)cc2)NC(=O)CSC[C@@H](C(N)=O)NC(=O)[C@H](C)NC(=O)CNC(=O)[C@H](CCC(N)=O)NC(=O)[C@H](CC(N)=O)NC(=O)[C@H]([C@@H](C)O)NC(=O)[C@@H]2CCCN2C(=O)[C@H](CCCCN)NC(=O)[C@H](CC(C)C)NC(=O)[C@H](CCCNC(=N)N)NC1=O` ({CH2CO}-YLRLKPTNQGAC-NH2; thioether N-12), the IC50 was found to be 73 µM.
For the compound `CC(C)C[C@@H]1NC(=O)[C@H](Cc2ccc(O)cc2)NC(=O)CSC[C@@H](C(N)=O)NC(=O)CNC(=O)CNC(=O)[C@H](CCCNC(=N)N)NC(=O)[C@H](CC(=O)O)NC(=O)[C@H](CCCCN)NC(=O)[C@@H]2CCCN2C(=O)[C@H](CCCNC(=N)N)NC(=O)[C@H](Cc2ccccc2)NC(=O)[C@H](CCCCNC(=N)N)NC1=O` ({CH2CO}-YL[hArg]FRPKDRGGC-NH2; thioether N-12), the IC50 came to 0.073 µM.
As to `COc1ccc(C[C@@H]2NC(=O)[C@H](CCCNC(=N)N)NC(=O)[C@H](CC(C)C)NC(=O)[C@H](Cc3ccc(O)cc3)NC(=O)CSC[C@@H](C(N)=O)NC(=O)CNC(=O)CNC(=O)[C@H](CCCNC(=N)N)NC(=O)[C@H](CC(=O)O)NC(=O)[C@H](CCCCN)NC(=O)[C@@H]3CCCN3C(=O)[C@H](CCCNC(=N)N)NC2=O)cc1` ({CH2CO}-YLRY(Me)RPKDRGGC-NH2; thioether N-12), the IC50 was 0.56 µM.
As for `CC(C)C[C@@H]1NC(=O)[C@H](Cc2ccc(O)cc2)NC(=O)CSC[C@@H](C(N)=O)NC(=O)CNC(=O)CNC(=O)[C@H](CCCNC(=N)N)NC(=O)[C@H](CC(=O)O)NC(=O)[C@H](CCCCN)NC(=O)[C@@H]2CCCN2C(=O)[C@H](CCCNC(=N)N)NC(=O)[C@H](CCc2ccccc2)NC(=O)[C@H](CCCNC(=N)N)NC1=O` ({CH2CO}-YLR[hPhe]RPKDRGGC-NH2; thioether N-12), the IC50 was 0.74 µM.
For `CC(C)C[C@@H]1NC(=O)[C@H](Cc2ccc(O)cc2)NC(=O)CSC[C@@H](C(N)=O)NC(=O)CNC(=O)CNC(=O)[C@H](C)NC(=O)[C@H](CC(=O)O)NC(=O)[C@H](CCCCN)NC(=O)[C@@H]2CCCN2C(=O)[C@H](CCCNC(=N)N)NC(=O)[C@H](Cc2ccccc2)NC(=O)[C@H](CCCNC(=N)N)NC1=O` ({CH2CO}-YLRFRPKDAGGC-NH2; thioether N-12), the IC50 came to 0.65 µM.
As for `CC(C)C[C@@H]1NC(=O)[C@H](Cc2ccc(O)cc2)NC(=O)CSC[C@@H](C(N)=O)NC(=O)CNC(=O)CNC(=O)[C@H](CCC(N)=O)NC(=O)[C@H](CC(N)=O)NC(=O)[C@H](C)NC(=O)[C@@H]2CCCN2C(=O)[C@H](CCCCN)NC(=O)[C@H](CC(C)C)NC(=O)[C@H](CCCNC(=N)N)NC1=O` ({CH2CO}-YLRLKPANQGGC-NH2; thioether N-12), the figure is 0.45 µM.
Regarding `CC(C)C[C@@H]1NC(=O)[C@H](Cc2ccc(O)cc2)NC(=O)CSC[C@@H](C(N)=O)NC(=O)CNC(=O)[C@H](C)NC(=O)[C@H](CCC(N)=O)NC(=O)[C@H](CC(N)=O)NC(=O)[C@H]([C@@H](C)O)NC(=O)[C@@H]2CCCN2C(=O)[C@H](CCCCN)NC(=O)[C@H](CC(C)C)NC(=O)[C@H](CCCNC(=N)N)NC1=O` ({CH2CO}-YLRLKPTNQAGC-NH2; thioether N-12), the IC50 came out at 21 µM.
Then `Cc1ccc(C[C@@H]2NC(=O)[C@H](CCCNC(=N)N)NC(=O)[C@H](CC(C)C)NC(=O)[C@H](Cc3ccc(O)cc3)NC(=O)CSC[C@@H](C(N)=O)NC(=O)CNC(=O)CNC(=O)[C@H](CCCNC(=N)N)NC(=O)[C@H](CC(=O)O)NC(=O)[C@H](CCCCN)NC(=O)[C@@H]3CCCN3C(=O)[C@H](CCCNC(=N)N)NC2=O)cc1` ({CH2CO}-YLR[Phe(4-Me)]RPKDRGGC-NH2; thioether N-12), with 0.056 µM.
Then `C[C@@H]1NC(=O)[C@H](Cc2ccc(O)cc2)NC(=O)CSC[C@@H](C(N)=O)NC(=O)CNC(=O)CNC(=O)[C@H](CCCNC(=N)N)NC(=O)[C@H](CC(=O)O)NC(=O)[C@H](CCCCN)NC(=O)[C@@H]2CCCN2C(=O)[C@H](CCCNC(=N)N)NC(=O)[C@H](Cc2ccccc2)NC(=O)[C@H](CCCNC(=N)N)NC1=O` ({CH2CO}-YARFRPKDRGGC-NH2; thioether N-12), with 290 µM.
